The test system of data set [1] is patient with end stage renal failure undergoing dialysis. The data set can be described thus: Arterial and valve calcification in a renal dialysis patient. Type of data set: in vivo, human. The settings on record: 90 mg 2-hour i.v. infusion once a month for three months, one year following initial treatment. On the procedure:
The Effect of a Bisphosphonate on Arterial and Valve Calcification in a Renal Dialysis Patient A patient with end stage renal failure undergoing dialysis was diagnosed with severe osteoporosis. The patient was treated with 90 mg of pamidronate disodium administered via a 2-hour intravenous infusion once a month for a total of three months. […] This reduction in calcification was independently corraborated by three physicians who viewed the radiographic images in a blinded fashion.

Data set [2] relates to LDLr−/− mice. The experiment in a line: Mouse model of progression of advanced atherosclerosis with vulnerable plaques (arterial calcification, valve calcification, plaque stabilization). It counts as in vivo. On the procedure:
A mouse model of progression of advanced atherosclerosis with development of vulnerable plaques was employed. Male, 4-6 week old LDLr−/− mice were divided into treatment groups of 18-20 animals each. […] The remaining LDLr−/− animals were dosed subcutaneously once per day with either vehicle or zoledronic acid solution (10 mg/kg/day) five out of seven days a week from week from week 15 through week 18 of diet administration. From weeks 19 through 22, no treatment was administered, however mice remained on the atherosclerosis-inducing high cholesterol/cholic acid diet. Mice were sacrificed at the end of week 22 and the heart and aorta were removed. The upper portion of the heart attached to the most proximal portion of the aorta containing the aortic sinus were embedded in OCT and frozen. 10 micron-thick sections were cut through the aortic sinus using a cryostat. Twenty-eight sections per animal were stained with von Kassa and/or hematoxylin. Cross-sectional areas were analyzed by planimetry to allow determination of atherosclerotic lesion area and extent of calcification within the heart valves. The remaining aorta, from the ascending aorta to the iliac bifurcation, as well as the major branches of the aorta were fixed, parafin embedded and cross sectioned for histologic analysis. Atherosclerosis extent and lesion composition was determined for the aorta and innominate (also called brachiocephalic) arteries using approriate staining methodology including hemotoxylin and eosin staining, Verhoff von Giessen staining for elastin, Von Kassa staining for calcium, and immunohistochemical stains for inflammatory cells.

Data set [3] deals with rat carotid arteries, balloon injured. The data set can be described thus: 28 day rat carotid artery balloon injury model (late neointimal lesion formation). It counts as in vivo. The following applies: for percent inhibition of neointimal lesion formation: 28 days post-balloon injury. On the procedure: Inhibition of Late Neointimal Lesion Formation in the 28 Day Rat Carotid Artery Balloon Injury Model
Zoledronic acid is tested in the following rat model.
Rats are dosed orally with […]. Daily dosing starts 3 days prior to surgery and continues for 31 days. Rat carotid arteries are balloon injured using a method described by Clowes et al. Lab. Invest. 1983; 49; 208-215. Following sacrifice at 28 days post-balloon injury, carotid arteries are removed and processed for histologic and morphometric evaluation.

In data set [4] the test system is New Zealand White rabbit iliac arteries. The experiment in a line: Rabbit iliac stent model, restenosis at 28 days. It counts as in vivo. On the procedure:
A combined angioplasty and stenting procedure is performed in New Zealand White rabbit iliac arteries. Iliac artery balloon injury is performed by inflating a 3.0×9.0 mm angioplasty balloon in the mid-portion of the artery followed by “pull-back” of the catheter for 1 balloon length. Balloon injury is repeated 2 times, and a 3.0×12 mm stent is deployed at 6 atm for 30 seconds in the iliac artery. Balloon injury and stent placement is then performed on the contralateral iliac artery in the same manner. A post-stent deployment angiogram is performed. All animals receive oral aspirin 40 mg/day daily as anti-platelet therapy and are fed standard low-cholesterol rabbit chow. Twenty-eight days after stenting, animals are anesthetized and euthanized and the arterial tree is perfused at 100 mmHg with lactated Ringer's for several minutes, then perfused with 10% formalin at 100 mmHg for 15 minutes. The vascular section between the distal aorta and the proximal femoral arteries is excised and cleaned of periadventitial tissue. The stented section of artery is embedded in plastic and sections are taken from the proximal, middle, and distal portions of each stent. All sections are stained with hematoxylin-eosin and Movat pentachrome stains. Computerized planimetry is performed to determine the area of the internal elastic lamina (IEL), external elastic lamina (EEL) and lumen. The neointima and neointimal thickness is measured both at and between the stent struts. The vessel area is measured as the area within the EEL. Data are expressed as mean±SEM. Statistical analysis of the histologic data is accomplished using analysis of variance (ANOVA) due to the fact that two stented arteries are measured per animal with a mean generated per animal. A P<0.05 is considered statistically significant.
Zoledronic acid is administered orally by gavage at 30 mg/kg once daily from 3 days prior to stenting until day 27 post-stenting.

Data set [5] can be described thus: Stability of zoledronic acid in human plasma. It counts as in vitro ADME. The following applies: 37° C. for 72 hours.
Data set [6] concerns PDGF receptor immunocomplexes of BALB/c 3T3 cells. The following applies: free drug, day after day.
Method: PDGF-stimulated receptor tyrosine kinase assay is performed on the last piece of each sample to determine the zoledronic acid activity. The inhibition of PDGF-stimulated receptor tyrosine kinase activity in vitro is measured in PDGF receptor immunocomplexes of BALB/c 3T3 cells, analogously to the method described by E. Andrejauskas-Buchdunger and U. Regenass in Cancer Research 52, 5353-5358 (1992).
Setting [7] is: at 22 weeks, vs baseline lesions at 15 weeks and vehicle at 22 weeks.

Regarding `NCCC(O)(P(=O)(O)O)P(=O)(O)O` [pamidronate disodium, 3-amino-1-hydroxypropane-1,1-diphosphonic acid], the “arterial and valve calcification (radiographic images)” value in data set [1] is given as “noticeable reduction”.
On to `O=P(O)(O)C(O)(Cn1ccnc1)P(=O)(O)O` [zoledronic acid, 2-(imidazol-1yl)-1-hydroxyethane-1,1-diphosphonic acid], for which the “plaque phenotype (vulnerable or rupture-prone plaques)” value in data set [2] (10 mg/kg/day s.c., four weeks, at 22 weeks, vs baseline and vehicle) is given as “more stable phenotype”. Moreover, in data set [2] (10 mg/kg/day s.c., vs placebo-treated animals), the “calcification of the aortic valves” value was “significantly less calcification”. In addition, in data set [2] (10 mg/kg/day s.c., weeks 15-18, read at 22 weeks of high cholesterol/cholic acid diet, vs vehicle), the “progression of atherosclerosis in the aorta and innominate arteries” value is given as “significantly reduced progression”. In data set [2] (setting [7]), the “fibrous caps of atherosclerotic lesions” value was “thicker fibrous caps”; the “inflammatory cells and areas of calcification in atherosclerotic lesions” value is “less inflammatory cells and areas of calcification”. Also, the “percent inhibition of neointimal lesion formation” value in data set [3] (0.5 mg/kg oral gavage) is reported as 17%. Further, the “percent inhibition of neointimal lesion formation” value in data set [3] (2.0 mg/kg oral gavage) amounted to 37%. Besides, in data set [3] (oral, daily, dose of from 0.2 to 3.5 mg), the “neointimal lesion formation at 28 days following balloon injury” value was “significantly reduce”. In addition, in data set [4] (30 mg/kg oral gavage once daily, vs placebo), the “extent of restenotic lesion formation” value was “marked reduction”. Besides, in data set [4] (30 mg/kg oral once daily), the “EEL area compared with control (constrictive remodeling or aneurysmal-type expansion)” value is recorded as “did not result in differences” and the “healing of the intima in stented arterial segments” value is recorded as “well healed”. Further, the “reduction in average neointimal thickness” value in data set [4] (30 mg/kg oral once daily, P<0.0001) worked out at 29%. Also, the “reduction in percent arterial stenosis” value in data set [4] (30 mg/kg oral once daily, P<0.0002) amounted to 17%. The “reduction in neointimal area” value in data set [4] (30 mg/kg oral once daily, P<0.04) amounted to 17%. The “stability in human plasma” value in data set [5] is “stable”. For the same compound, the “activity over time in the same assay” value in data set [6] is “strong decrease”.

The record behind these values is patent US20060166937A1, “Bisphosphonates for the treatment of atherosclerosis and device comprising them” (priority 2002, published 2006).
